Measurements published in patent publication US9650365B2 (UNIVERSITY OF CONNECTICUT, priority 2014, dated 2017).
Like-named read-outs stand apart in the source and are kept apart here.

Key:
[1] = system: MERP MB cells (Math1-Cre-ER; Ptc fl/fl medulloblastoma); assay: Anti-proliferation in primary MERP MB cells; type: cell-based, mice; details: Mus musculus, 48 h, read-out: GI50 (μM) MERP MB, 48 hr incubation
Protocol: General Information. Protocols for general cell culture, qPCR and Hh inhibition in C3H10T1/2 and ASZ cells are as previously described.^28 Protocols for the initiation and growth of Math1-Cre-ER; Ptc^fl/fl medulloblastoma tumors, isolation and in vitro culture of MERP MB cells, as wells as the anti-proliferation and qPCR studies performed in these cells were as previously described.^a Sonic Hedgehog (C25II) recombinant mouse protein was purchased from Life Technologies. aData was analyzed using GraphPad Prism 5 and reported values represent mean±SEM for at least two separate experiments performed in triplicate.
In this well-studied model system for evaluating small molecule inhibition of Hh signaling, addition of an exogenous Hh agonist (recombinant Hh ligand or small molecule) results in a characteristic increase in Gli1 mRNA expression. Concomitant incubation with a pathway inhibitor reduces Gli1 expression. […] In addition, several compounds were evaluated for their anti-proliferative effects in primary Hh-dependent medulloblastoma cells isolated from conditional patched knockout (Math1-Cre-ER; Ptc^fl/fl, MERP) mice. […] Finally, each of these analogues was evaluated for its ability to inhibit proliferation in human umbilical vein […] cells (HUVECs). In vivo angiogenesis is dependent on endothelial cell proliferation; therefore, the inhibition of HUVEC proliferation is commonly utilized as an early stage in vitro model of anti-angiogenic activity.

[2] = system: hedgehog (Hh) signaling pathway; details: background; cited from earlier work
Hh-dependent MB = details: oral administration; cited from earlier work
HUVEC = HUVEC proliferation (MTS); type: cell-based, human; details: Homo sapiens, HUVEC
Procedure, shortened: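 HUVECs seeded at 3,000 cells/well, attached overnight, then treated with varying drug concentrations. Proliferation read by MTS/PMS after 72 h.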

CCC(C)n1ncn(-c2ccc(N3CCN(c4ccc(OCC5COC(Cn6cncn6)(c6ccc(Cl)cc6Cl)O5)cc4)CC3)cc2)c1=O (stereo not drawn) [ITZ, itraconazole, reference compound]
GI50 [1]: 0.44 ± 0.08 µM | IC50 [2]: 690 nM | survival (Hh-dependent MB): increased survival | GI50 (HUVEC; 72 h, read-out: GI50 (μM) HUVEC, 72 h): 0.4 ± 0.03 µM | GI50 (HUVEC; read-out: GI50 HUVEC proliferation): 0.45 µM | IC50 (HUVEC; read-out: HUVEC Anti-proliferation): 450 ± 140 nM
